Among the data in PubChem BioAssay (NCI) are TGI and GI50 values, retold here.

Structures are written as SMILES.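 Following 48 hours of exposure in 96-well plates, responses at five concentrations were used to interpolate endpoints linearly. GI50: concentration for 50% inhibition of growth. At the TGI there is no net growth.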 Where only a bound is given, the exact number is not on record here.

Holding throughout (test): growth of human tumour cells (NCI), 48 h
The subject of assay [1] is HOP-62 NSCLC.
Assay [2] has as its system EKVX NSCLC.
Assay [3] has as its system UO-31 renal.
The test system of assay [4] is RXF 393 renal.
Assay [5] has as its system SK-MEL-2 melanoma.
Assay [6] relates to SK-MEL-28 melanoma.
Assay [7] relates to TK-10 renal.
In assay [8] the test system is ACHN renal.
The test system of assay [9] is NCI-H522 lung.
The subject of assay [10] is MDA-MB-231 breast.

As for `COC[C@H](Cc1ccccc1)N=Cc1ccccc1`, the TGI in [1], in assay [2], in [3], in [4], in [5] and in [6] was more than 100 µM throughout. Further, the TGI in [7], in assay [8] and in [9] was more than 100 µM each time.

On to `COc1cc2c(oc(=O)c3c4oc([Si](C)(C)C)cc4cc(OC)c23)c2cccc(O)c12`, for which the TGI in [1], in [2], in assay [3], in [4], in [5] and in assay [6] was more than 100 µM in each case. For the same molecule, the TGI in [7], in assay [8] and in assay [9] was more than 100 µM in each case.

Consider `O=C(CCc1nnc2s/c(=C\c3ccc(Cl)cc3Cl)c(=O)n12)Nc1cc(Cl)c(Cl)cc1Cl`, for which the GI50 in assay [1], in assay [2], in [3], in [5], in [6] and in assay [8] was more than 100 µM in each case. Also, the TGI in assay [1], in assay [2], in [3], in [5], in assay [6] and in [7] was more than 100 µM throughout. Besides, the TGI in assay [8] and in assay [9] was more than 100 µM throughout.

With `CC(C)(C)C(=O)Cc1cc2c(cc1C(=O)O)S(=O)(=O)NC(C(C)(C)C)=C2`, the TGI in assay [1], in assay [2], in assay [3], in assay [5], in assay [6] and in assay [7] was more than 100 µM in each case. Besides, the TGI in assay [8] and in [9] was more than 100 µM in each case.

Regarding `COc1cc(NS(C)(=O)=O)ccc1N1Cc2cnc3ccc4[nH]ccc1c4c23`, the TGI in assay [1] was more than 100 µM; in assay [2] it was more than 100 µM; in assay [3], more than 100 µM; in [10], 92.4 µM; in assay [5], 64.6 µM; in assay [6], more than 100 µM. In addition, the TGI in [7], in [8] and in assay [9] was more than 100 µM in each case.

As for `N#C/C(=C/NC(=S)Nc1ccc(S(N)(=O)=O)cc1)C(N)=O`, the TGI in [1], in assay [2], in [4], in assay [6], in [7] and in [8] was more than 100 µM in each case. The TGI in assay [9] was more than 100 µM.

For `CC(C)(C)OC(=O)N(CCCN)CCCCN(CCCN)C(=O)OC(C)(C)C`, the TGI in [1], in [2], in [3], in assay [4], in assay [5] and in [6] was more than 100 µM throughout. Further, the TGI in [7], in assay [8] and in assay [9] was more than 100 µM each time.

Turning to `CC(C)OP(=O)(OC(C)C)c1ncn(-c2ccc([N+](=O)[O-])cc2)n1`, the TGI in [1], in assay [2], in [3], in [4], in [5] and in assay [6] was more than 100 µM in each case. Moreover, the TGI in assay [7], in assay [8] and in [9] was more than 100 µM in each case.

Turning to `CC(=S)NC1C(Oc2ccc3c(C)cc(=O)oc3c2)OC(CO)C(O)C1O` (stereo unspecified), the TGI in [1], in assay [2], in assay [3], in assay [10], in assay [4] and in assay [5] was more than 100 µM in each case. In addition, the TGI in [6], in [7] and in assay [8] was more than 100 µM in each case.

As to `COc1cc2c(cc1C)NC(=O)/C2=C/c1c(Cl)n(C)c2ccccc12`, the TGI in assay [1] is 29.5 µM; in [2], 28.1 µM; in assay [3], 22.9 µM; in assay [10], 65.1 µM; in assay [4], 19.6 µM; in [5], 30.4 µM. In addition, the figures for the TGI in assay [6], in assay [7] and in assay [8] were 62.6 µM, 30.7 µM and 25.7 µM, respectively.

For `CC1=C2CC3=C(C)C(=O)O[C@H]3C[C@@H](C)[C@@H]2CC1`, the TGI in assay [2], in assay [3], in assay [10], in [5], in assay [6] and in [7] was more than 100 µM each time. The TGI in [8] was more than 100 µM.

For `c1ccc(C2(c3cc4ccccc4[nH]3)OCCO2)cc1`, the TGI in [2], in [3], in assay [10], in assay [4], in [5] and in assay [6] was more than 100 µM in each case. Moreover, the TGI in assay [7] and in assay [8] was more than 100 µM each time.

Regarding `O=C(c1ccccc1)c1cc(-c2ccccc2)c(-c2ccccc2)[nH]c(=O)c1=O`, the TGI in assay [1] is more than 100 µM; in assay [2] it was more than 100 µM; in assay [3], more than 100 µM; in assay [10], more than 100 µM; in assay [5], 57.5 µM; in assay [6], more than 100 µM. Moreover, the TGI in [7] was more than 100 µM; in assay [8] it was more than 100 µM; in assay [9], 74.4 µM.

`COc1ccc2[nH]c3c(C)c4ccnc(NCCCN(C)CCCNC(=O)NCCCN(C)CCCNc5nccc6c(C)c7[nH]c8ccc(OC)cc8c7c(C)c56)c4c(C)c3c2c1`: the TGI is 2.11 µM in [1]; 2.56 µM in [2]; more than 16.9 µM in assay [3]; more than 50 µM in [10]; 1.26 µM in assay [4]; 4.07 µM in assay [5]. In addition, the TGI in assay [6] was more than 15.5 µM; in assay [7], more than 50 µM; in assay [8], 2.8 µM.

Consider `CCCCCCCCCCCCCCCCCc1nc(C#N)c(N)o1`, for which the TGI was more than 100 µM in assay [1]; more than 100 µM in assay [2]; 96.5 µM in assay [10]; more than 100 µM in assay [5]; more than 100 µM in assay [6]; more than 100 µM in [7]. The molecule also came in with a TGI in [8] of more than 100 µM.

As for `COC[C@@H](N=Cc1ccc(OC)cc1)C(C)C`, the TGI in assay [1], in [2], in assay [3], in [4], in [5] and in assay [6] was more than 100 µM in each case. The TGI in assay [7], in [8] and in [9] was more than 100 µM throughout.

As for `OB1OCc2ccccc21`, the TGI was 62.9 µM in [1]; more than 100 µM in assay [3]; more than 100 µM in [10]; more than 100 µM in assay [5]; 63 µM in assay [6]; more than 100 µM in [7].

Regarding `O=C(Cl)c1cc([N+](=O)[O-])cc([N+](=O)[O-])c1`, the TGI in assay [1], in [2], in assay [3], in [5], in assay [6] and in assay [7] was more than 100 µM in each case. Moreover, the TGI in assay [8] and in [9] was more than 100 µM in each case.

Consider `O=C1CSC(c2ccc(Cl)cc2)N1c1ccc(-n2c(-c3ccccc3)nc3ccccc3c2=O)cc1` (stereo unspecified), for which the TGI in assay [1], in assay [2], in [3], in assay [10], in assay [5] and in assay [6] was more than 100 µM each time. Besides, the TGI in assay [7], in [8] and in [9] was more than 100 µM in each case.

Consider `COC(=O)C1(C(=O)OC)CC2=C(S(=O)(=O)c3ccccc3)C[C@@H](C#N)[C@H]2C1`, for which the TGI in assay [1], in [2], in assay [3], in assay [10], in assay [5] and in [6] was more than 100 µM in each case. In addition, the TGI in assay [7], in assay [8] and in assay [9] was more than 100 µM each time.

Turning to `COC(=O)c1ccc2[nH]c3c(c2c1)CC(=O)Nc1ccccc1-3`, the TGI was more than 100 µM in assay [1]; more than 100 µM in assay [2]; 0.211 µM in assay [3]; more than 100 µM in assay [10]; more than 100 µM in assay [5]; more than 100 µM in [6]. The TGI in [7], in [8] and in assay [9] was more than 100 µM throughout.

Take `O=C(CSCC(=O)N/N=C\c1cc(Br)cc(Br)c1O)N/N=C\c1cc(Br)cc(Br)c1O`: the TGI is more than 100 µM in assay [1]; more than 100 µM in assay [2]; 49.6 µM in [3]; more than 100 µM in assay [4]; 42.7 µM in [5]; more than 100 µM in [6]. In addition, the TGI in [7] is 71.8 µM; in assay [8], 31.4 µM; in [9], 50.9 µM.

On to `Cc1cccc2ns[s+]c12`, for which the TGI in assay [1], in [2], in assay [3], in [6], in assay [7] and in assay [8] was more than 100 µM throughout.

As for `NC(N)=NS(=O)(=O)c1ccc(NC(=O)c2c3ccccc3nc3ccccc23)cc1`, the TGI in assay [1], in assay [2], in [3], in assay [10], in [5] and in assay [6] was more than 100 µM in each case. The TGI in [7], in assay [8] and in assay [9] was more than 100 µM in each case.

For `COc1cc(C2c3cc4c(c(O)c3C(=O)C3CCC(=O)N32)OCO4)cc(OC)c1OC` (stereo unspecified), the TGI in assay [1], in [2], in [3], in [5], in assay [6] and in [7] was more than 100 µM each time. The TGI in assay [8] is more than 100 µM; in assay [9] it was 38.9 µM.

In the case of `Clc1ccc(CCN2CCN(CCCc3ccccc3)CC2)cc1Cl`, the TGI in assay [1] was 35.8 µM; in assay [2], 32.9 µM; in [3], 24.7 µM; in assay [10] it was 30.8 µM; in assay [5], 36.4 µM; in assay [6], 37.5 µM. For the same molecule, the TGI in [7] was found to be 30.1 µM; in assay [8], 39.4 µM; in assay [9] it was 36.7 µM.

With `O=C1c2ccccc2C(=O)c2c1c1cc(O)ccc1n2Cc1ccc(Cl)cc1Cl`, the TGI in assay [1] turned out to be 9.88 µM; in assay [3], 37.9 µM; in [10], 17.5 µM; in assay [4] it was 9.44 µM; in assay [5], 33.9 µM; in [6], 36.1 µM. The TGI in [7] was found to be 27.4 µM.

Consider `CC(C)(C)OC(=O)NCCNC(=O)OCc1ccccc1`, for which the TGI in [1], in assay [2], in [3], in assay [4], in assay [5] and in assay [6] was more than 100 µM in each case. The TGI in assay [7], in [8] and in [9] was more than 100 µM in each case.

With `COc1cc(C=Nc2ccc(Oc3ccc(Cl)cc3)c(Cl)c2)cc(OC)c1OC`, the TGI in assay [1] worked out at 49 µM; in assay [2] it was 48.1 µM; in [3] it was 23.2 µM; in assay [10], 35 µM; in assay [5], 45.9 µM; in [6] it was 53.8 µM. Further, the TGI in [7] is more than 100 µM; in [8], 83.8 µM; in assay [9], 28.1 µM.

Consider `O=c1[nH]/c(=C/c2ccc(OCc3ccccc3)cn2)c(=O)[nH]/c1=C/c1cccnc1`, for which the TGI in assay [1] was more than 100 µM; in assay [2] it was more than 75.2 µM; in assay [4] it was more than 100 µM; in assay [5] it was more than 44.1 µM; in assay [6], more than 100 µM; in [7], more than 100 µM. For the same molecule, the TGI in [8] was more than 100 µM; in assay [9] it was 0.588 µM.
